Measurements: article PMC11879280, “Antimicrobial activity of peptoids against Metallo-β-lactamase-producing Klebsiella pneumoniae, Acinetobacter baumannii, Pseudomonas aeruginosa, and other WHO priority pathogens, including Candida auris” (Journal of Applied Microbiology, 2025)
Read-outs that look alike come from different tables or passages of the source. Square brackets hold non-standard residues; d marks the D form. Peptide text beside a SMILES is read from it. Nspe(4-Br) = C[C@H](NCC(=O)O)c1ccc(Br)cc1; Nspe = C[C@H](NCC(=O)O)c1ccccc1; Nlys = NCCCCNCC(=O)O

What was measured:
Enterobacteriaceae = assay: Geometric mean MIC, therapeutic index and selectivity ratio, Enterobacteriaceae; type: cell-based; settings: Enterobacteriaceae (E. coli, K. pneumoniae, and E. aerogenes)
Description: Briefly, bacteria were suspended in cation-adjusted Mueller–Hinton broth (CAMHB; Oxoid, UK) for antibiotics, or MHB (Oxoid, UK) for peptidomimetics to obtain 5 × 10^5 colony forming unit (CFU) ml^−1. […] Positive controls contained only microbes, and blanks contained only media. Microbial suspensions (100 µl) were added to wells, plates wrapped, and incubated at 37°C, 120 rpm for 16–20 h. After incubation, suspensions were removed, log10 diluted, and plated on Trypticase Soya Agar with phosphatidylcholine and Tween 80 to determine minimum bactericidal or fungicidal concentration (MBC or MFC). […] Geometric mean MIC of the peptoids were calculated to evaluate the broad overview of antimicrobial activity across the pathogens.
The therapeutic indices (TIs) of the compounds were calculated with the use of following formula: […]

A. baumannii 005 = system: A. baumannii 005
Procedure, shortened: (§1)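 Incubation 37°C, 120 rpm, 16–20 h, starting from 5 × 10^5 CFU/ml in MHB (peptidomimetics) or cation-adjusted MHB (antibiotics). Bactericidal/fungicidal endpoints came from log10-diluted wells plated on Trypticase Soya Agar containing phosphatidylcholine and Tween 80; MICs also summarised as geometric means.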

A. baumannii 006 = system: A. baumannii 006
Procedure, shortened: as §1

A. baumannii 007 = system: A. baumannii 007
Procedure, shortened: as §1

A. baumannii 008 = system: A. baumannii 008
Procedure, shortened: as §1

A. baumannii ATCC 19 606 = system: A. baumannii ATCC 19 606
Procedure, shortened: as §1

E. coli 0010 = system: E. coli 0010
Procedure, shortened: as §1

E. coli 0011 = system: E. coli 0011
Procedure, shortened: as §1

E. coli 0015 = system: E. coli 0015
Procedure, shortened: as §1

E. coli 005 = system: E. coli 005
Procedure, shortened: as §1

En. cloacae 001 = system: En. cloacae 001
Procedure, shortened: as §1

En. cloacae 003 = system: En. cloacae 003
Procedure, shortened: as §1

En. cloacae 005 = system: En. cloacae 005
Procedure, shortened: as §1

[1] = system: Enteroc. faecalis NCTC 13 379
Procedure, shortened: as §1

K. pneumoniae JIE2709 = system: K. pneumoniae JIE2709
Procedure, shortened: as §1

K. pneumoniae JIE2713 = system: K. pneumoniae JIE2713
Procedure, shortened: as §1

K. pneumoniae JIE4212 = system: K. pneumoniae JIE4212
Procedure, shortened: as §1

P. aeruginosa 216 = system: P. aeruginosa 216
Procedure, shortened: as §1

P. aeruginosa 33 = system: P. aeruginosa 33
Procedure, shortened: as §1

P. aeruginosa AR-1270 = system: P. aeruginosa AR-1270
Procedure, shortened: as §1

S. aureus 04 = system: S. aureus 04
Procedure, shortened: as §1

S. aureus 105 = system: S. aureus 105
Procedure, shortened: as §1

S. aureus 117 = system: S. aureus 117
Procedure, shortened: as §1

S. aureus 38 = system: S. aureus 38
Procedure, shortened: as §1

[2] = A. baumannii 005, MHB (melimine/Mel4 with 0.2% BSA, 0.01% acetic acid), mean MIC
[3] = A. baumannii 006, MHB (melimine/Mel4 with 0.2% BSA, 0.01% acetic acid), mean MIC
[4] = A. baumannii 007, MHB (melimine/Mel4 with 0.2% BSA, 0.01% acetic acid), mean MIC
[5] = A. baumannii ATCC 19 606, MHB (melimine/Mel4 with 0.2% BSA, 0.01% acetic acid), mean MIC
[6] = E. coli 0010, MHB (melimine/Mel4 with 0.2% BSA, 0.01% acetic acid), mean MIC
[7] = E. coli 0011, MHB (melimine/Mel4 with 0.2% BSA, 0.01% acetic acid), mean MIC
[8] = E. coli 0015, MHB (melimine/Mel4 with 0.2% BSA, 0.01% acetic acid), mean MIC
[9] = E. coli 005, MHB (melimine/Mel4 with 0.2% BSA, 0.01% acetic acid), mean MIC
[10] = En. cloacae 001, MHB (melimine/Mel4 with 0.2% BSA, 0.01% acetic acid), mean MIC
[11] = En. cloacae 003, MHB (melimine/Mel4 with 0.2% BSA, 0.01% acetic acid), mean MIC
[12] = En. cloacae 005, MHB (melimine/Mel4 with 0.2% BSA, 0.01% acetic acid), mean MIC
[13] = Enteroc. faecalis NCTC 13 379, MHB (melimine/Mel4 with 0.2% BSA, 0.01% acetic acid), mean MIC
[14] = K. pneumoniae JIE2709, MHB (melimine/Mel4 with 0.2% BSA, 0.01% acetic acid), mean MIC
[15] = K. pneumoniae JIE2713, MHB (melimine/Mel4 with 0.2% BSA, 0.01% acetic acid), mean MIC
[16] = K. pneumoniae JIE4212, MHB (melimine/Mel4 with 0.2% BSA, 0.01% acetic acid), mean MIC
[17] = P. aeruginosa 216, MHB (melimine/Mel4 with 0.2% BSA, 0.01% acetic acid), mean MIC
[18] = P. aeruginosa AR-1270, MHB (melimine/Mel4 with 0.2% BSA, 0.01% acetic acid), mean MIC
[19] = S. aureus 105, MHB (melimine/Mel4 with 0.2% BSA, 0.01% acetic acid), mean MIC

C[C@@H](c1ccccc1)N(CC(N)=O)C(=O)CN(C(=O)CN(CCCCN)C(=O)CN(C(=O)CN(C(=O)CN(CCCCN)C(=O)CN(C(=O)CN(C(=O)CN(CCCCN)C(=O)CN(C(=O)CN(C(=O)CNCCCCN)[C@@H](C)c1ccccc1)[C@@H](C)c1ccccc1)[C@@H](C)c1ccccc1)[C@@H](C)c1ccccc1)[C@@H](C)c1ccccc1)[C@@H](C)c1ccccc1)[C@@H](C)c1ccccc1 [TM1] (H-[Nlys][Nspe][Nspe][Nlys][Nspe][Nspe][Nlys][Nspe][Nspe][Nlys][Nspe][Nspe]-NH2)
Geometric mean MICE (Enterobacteriaceae): 23.7 µg/mL
MIC of peptidomimetics (A. baumannii 005; 005): 2.1 µM
MIC of peptidomimetics (A. baumannii 005; [2]): 3.9 µg/mL
MIC of peptidomimetics (A. baumannii 006; 006): 2.1 µM
MIC of peptidomimetics (A. baumannii 006; [3]): 3.9 µg/mL
MIC of peptidomimetics (A. baumannii 007; 007): 2.1 µM
MIC of peptidomimetics (A. baumannii 007; [4]): 3.9 µg/mL
MIC of peptidomimetics (A. baumannii 008; 008): 7.8 µg/mL
MIC of peptidomimetics (A. baumannii ATCC 19 606; [5]): 3.9 µg/mL
MIC of peptidomimetics (A. baumannii ATCC 19 606; ATCC 19): 2.1 µM
MIC of peptidomimetics (E. coli 0010; 0010): 8.6 µM
MIC of peptidomimetics (E. coli 0010; [6]): 15.6 µg/mL
MIC of peptidomimetics (E. coli 0011; 0011): 17.2 µM
MIC of peptidomimetics (E. coli 0011; [7]): 31.3 µg/mL
MIC of peptidomimetics (E. coli 0015; 0015): 17.2 µM
MIC of peptidomimetics (E. coli 0015; [8]): 31.3 µg/mL
MIC of peptidomimetics (E. coli 005; 005): 8.6 µM
MIC of peptidomimetics (E. coli 005; [9]): 15.6 µg/mL
MIC of peptidomimetics (En. cloacae 001): 8.6 µM
MIC of peptidomimetics (En. cloacae 001; [10]): 15.6 µg/mL
MIC of peptidomimetics (En. cloacae 003): 34.4 µM
MIC of peptidomimetics (En. cloacae 003; [11]): 62.5 µg/mL
MIC of peptidomimetics (En. cloacae 005): 8.6 µM
MIC of peptidomimetics (En. cloacae 005; [12]): 15.6 µg/mL
MIC of peptidomimetics [1, 13]: 31.3 µg/mL
MIC of peptidomimetics ([1]; Enteroc. faecalis NCTC 13 379, value in brackets): 17.2 µM
MIC of peptidomimetics (K. pneumoniae JIE2709; [14]): 15.6 µg/mL
MIC of peptidomimetics (K. pneumoniae JIE2709; K. pneumoniae JIE2709, value in brackets): 8.6 µM
MIC of peptidomimetics (K. pneumoniae JIE2713; [15]): 62.5 µg/mL
MIC of peptidomimetics (K. pneumoniae JIE2713; K. pneumoniae JIE2713, value in brackets): 34.4 µM
MIC of peptidomimetics (K. pneumoniae JIE4212; [16]): 15.6 µg/mL
MIC of peptidomimetics (K. pneumoniae JIE4212; K. pneumoniae JIE4212, value in brackets): 8.6 µM
MIC of peptidomimetics (P. aeruginosa 216; 216): 8.6 µM
MIC of peptidomimetics (P. aeruginosa 216; [17]): 15.6 µg/mL
MIC of peptidomimetics (P. aeruginosa 33): 15.6 (8.6) µg ml^−1
MIC of peptidomimetics (P. aeruginosa 33; 33): 8.6 µmol/L
MIC of peptidomimetics (P. aeruginosa AR-1270; [18]): 31.3 µg/mL
MIC of peptidomimetics (P. aeruginosa AR-1270; P. aeruginosa AR-1270, value in brackets): 17.2 µM
MIC of peptidomimetics (S. aureus 04; 04): 7.8 µg/mL
MIC of peptidomimetics (S. aureus 105; 105): 2.1 µM
MIC of peptidomimetics (S. aureus 105; [19]): 3.9 µg/mL
MIC of peptidomimetics (S. aureus 117; 117): 7.8 µg/mL
MIC of peptidomimetics (S. aureus 38; 38): 7.8 µg/mL

C[C@@H](c1ccc(Br)cc1)N(CC(=O)N(CCCCN)CC(=O)N(CC(=O)N(CC(=O)N(CCCCN)CC(N)=O)[C@@H](C)c1ccc(Br)cc1)[C@@H](C)c1ccccc1)C(=O)CN(C(=O)CNCCCCN)[C@@H](C)c1ccccc1 [TM12] (H-[Nlys][Nspe][Nspe(4-Br)][Nlys][Nspe][Nspe(4-Br)][Nlys]-NH2)
Geometric mean MICE (Enterobacteriaceae): 47.4 µg/mL
MIC of peptidomimetics (A. baumannii 005; 005): 51.8 µM
MIC of peptidomimetics (A. baumannii 005; [2]): 62.5 µg/mL
MIC of peptidomimetics (A. baumannii 006; 006): 103.8 µM
MIC of peptidomimetics (A. baumannii 006; [3]): 125 µg/mL
MIC of peptidomimetics (A. baumannii 007; 007): 51.8 µM
MIC of peptidomimetics (A. baumannii 007; [4]): 62.5 µg/mL
MIC of peptidomimetics (A. baumannii 008; 008): 51.8 µM
MIC of peptidomimetics (A. baumannii 008; A. baumannii 008, MHB (melimine/Mel4 with 0.2% BSA, 0.01% acetic acid), mean MIC): 62.5 µg/mL
MIC of peptidomimetics (A. baumannii ATCC 19 606; [5]): 125 µg/mL
MIC of peptidomimetics (A. baumannii ATCC 19 606; ATCC 19): 103.8 µM
MIC of peptidomimetics (E. coli 0010; 0010): 103.8 µM
MIC of peptidomimetics (E. coli 0010; [6]): 125 µg/mL
MIC of peptidomimetics (E. coli 0011; 0011): 25.9 µM
MIC of peptidomimetics (E. coli 0011; [7]): 31.3 µg/mL
MIC of peptidomimetics (E. coli 0015; 0015): 51.8 µM
MIC of peptidomimetics (E. coli 0015; [8]): 62.5 µg/mL
MIC of peptidomimetics (E. coli 005; 005): 103.8 µM
MIC of peptidomimetics (E. coli 005; [9]): 125 µg/mL
MIC of peptidomimetics (En. cloacae 001): 13.0 µM
MIC of peptidomimetics (En. cloacae 001; [10]): 15.6 µg/mL
MIC of peptidomimetics (En. cloacae 003): 3.3 µM
MIC of peptidomimetics (En. cloacae 003; [11]): 3.9 µg/mL
MIC of peptidomimetics (En. cloacae 005): 13.0 µM
MIC of peptidomimetics (En. cloacae 005; [12]): 15.6 µg/mL
MIC of peptidomimetics [1, 13]: 7.8 µg/mL
MIC of peptidomimetics ([1]; NCTC 13): 6.5 µM
MIC of peptidomimetics (K. pneumoniae JIE2709; JIE2709): 103.8 µM
MIC of peptidomimetics (K. pneumoniae JIE2709; [14]): 125 µg/mL
MIC of peptidomimetics (K. pneumoniae JIE2713; JIE2713): 103.8 µM
MIC of peptidomimetics (K. pneumoniae JIE2713; [15]): 125 µg/mL
MIC of peptidomimetics (K. pneumoniae JIE4212; JIE4212): 103.8 µM
MIC of peptidomimetics (K. pneumoniae JIE4212; [16]): 125 µg/mL
MIC of peptidomimetics (P. aeruginosa 216; 216): 25.9 µM
MIC of peptidomimetics (P. aeruginosa 216; [17]): 31.3 µg/mL
MIC of peptidomimetics (P. aeruginosa 33; 33): 3.3 µmol/L
MIC of peptidomimetics (P. aeruginosa 33; P. aeruginosa 33, MHB (melimine/Mel4 with 0.2% BSA, 0.01% acetic acid), mean MIC): 3.9 µg/mL
MIC of peptidomimetics (P. aeruginosa AR-1270; AR-1270): 103.8 µM
MIC of peptidomimetics (P. aeruginosa AR-1270; [18]): 125 µg/mL
MIC of peptidomimetics (S. aureus 04; 04): 3.3 µM
MIC of peptidomimetics (S. aureus 04; S. aureus 004, MHB (melimine/Mel4 with 0.2% BSA, 0.01% acetic acid), mean MIC): 3.9 µg/mL
MIC of peptidomimetics (S. aureus 105; 105): 6.5 µM
MIC of peptidomimetics (S. aureus 105; [19]): 7.8 µg/mL
MIC of peptidomimetics (S. aureus 117; 117): 3.3 µM
MIC of peptidomimetics (S. aureus 117; S. aureus 117, MHB (melimine/Mel4 with 0.2% BSA, 0.01% acetic acid), mean MIC): 3.9 µg/mL
MIC of peptidomimetics (S. aureus 38; 38): 6.5 µM
MIC of peptidomimetics (S. aureus 38; S. aureus 38, MHB (melimine/Mel4 with 0.2% BSA, 0.01% acetic acid), mean MIC): 7.8 µg/mL
